Values quoted from earlier work as cited in patent publication US11110072B2, “Broad spectrum pharmacological composition for treatment of various infections and diseases and methods of use” (Greyfer Innova Pharma, LLC, priority 2013, dated 2021).

What was measured:
[1] = even at high concentrations
[2] = after oral administration

Compound: O=C(O)CC(O)(CC(=O)O)C(=O)O [Citric acid, 2-hydroxytricarboxylic acid]
- effect in contact with skin [1]: not injurious in contact with skin
- excreted unchanged in urine [2]: less than 1%
